Assay results published in patent US11608313B2, “Adamantylmethylamine derivative and use thereof as pharmaceutical” (TOHOKU UNIVERSITY, priority 2017, dated 2023).

Experiments:
[1] = system: Kir6.2 channel-overexpressing cells; test: Calcium imaging in Kir6.2 channel-overexpressing cells; format: cell-based
Protocol: The same Kir6.2 channel-overexpressing cells as used in Test Example 1 were used to measure, by calcium imaging, the levels of calcium entering the cells after TP-014 treatment. The calcium imaging is a method in which cultured nerve cells are treated with a culture medium supplemented with a calcium fluorescent dye (Fura2, produced by Dojindo Laboratories) to a concentration of 4 μM, and measured for the levels of calcium based on fluorescence intensity. The imaging was carried out using an imaging apparatus (LAMBDA 10-2, produced by Sutter Instrument) in accordance with the attached manual.

[2] = system: APP23 mice; test: Fear conditioning test in APP23 mice; format: in vivo; details: treated for two months
Text: The fear conditioning test is an analysis method that takes advantage of the characteristic preference of mice for a dark place over a bright place. On day 1, a mouse is placed in a bright place. The mouse, which prefers darkness, enters a dark place (dark box), but then electrical simulation is delivered to the mouse. The mouse is surprised, returns to the bright place, and never enters the dark place. On day 2, the mouse is placed again in the bright place (the same place as on day 1) and observed for 5 minutes to see whether the mouse enters a dark place. If the mouse immediately enters the dark place, it is determined that the mouse experiences a decline in fear memory. “Latency” refers to the number of seconds until the mouse placed in the bright place on day 2 enters a dark place.

[3] = system: APP23 mice; test: Electrophysiological test of long-term potentiation (LTP) in hippocampal slices of APP23 mice; format: in vivo; details: APP23 mice chronically treated
[4] = system: CaMKII; test: Protein phosphorylation in hippocampus of APP23 mice (immunoblotting); format: in vivo; details: APP23 mice chronically treated orally, 1 mg/kg, two months
Text: Hippocampus samples were excised from APP23 mice, and hippocampal slices were suspended in an SDS sample buffer and analyzed for protein phosphorylation by immunoblotting using antibodies against CaMKII, CaMKIV and ERK (CaMKII: Fukunaga, et al., J. Biol. Chem. 1992, 267, 22527-22533; CaMKIV: Kasahara, et al., J. Biol. Chem. 2001, 276, 24044-24050; ERK: produced by Sigma-Aldrich). CaMKII, CaMKIV and ERK are all considered as molecules playing an important role in memory formation.

[5] = biological target: T1, Kir6.1 channels (Mus musculus, UniProt P97794); test: Patch-clamp assay of outward potassium current in Kir6.1 channel-overexpressing cells; format: cell-based; details: 10 nM
T1 construct: The plasmid vector having inserted therein Kir6.1 channel cDNA: pcDNA3.1-Kir6.1; expressed in transfected cells; host or cells: Neuro2A (N2A) cells, mouse neuroblastoma
T1 sequence (P97794 1-424): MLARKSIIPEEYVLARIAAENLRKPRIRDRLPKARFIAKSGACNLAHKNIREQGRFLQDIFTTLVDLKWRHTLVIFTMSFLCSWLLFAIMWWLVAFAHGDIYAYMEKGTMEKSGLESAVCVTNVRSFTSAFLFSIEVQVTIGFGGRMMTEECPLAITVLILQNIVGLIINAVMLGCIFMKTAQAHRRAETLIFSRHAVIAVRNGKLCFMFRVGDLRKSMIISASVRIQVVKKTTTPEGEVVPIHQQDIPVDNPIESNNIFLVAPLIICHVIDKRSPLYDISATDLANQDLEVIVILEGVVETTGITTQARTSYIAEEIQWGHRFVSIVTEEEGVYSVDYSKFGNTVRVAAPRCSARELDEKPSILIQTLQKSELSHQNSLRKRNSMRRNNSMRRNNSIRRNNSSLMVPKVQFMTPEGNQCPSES
Text: Further, the obtained Kir6.1 channel-overexpressing cells were used to measure potassium current discharged out of the cells by a conventional patch-clamp assay. ATP-sensitive potassium channels (Kir6.1 channels) are localized in the cell membranes of nerve cells. If the channels are inhibited and closed, the threshold of the nerve cell membranes rises to create a condition analogous to temporal generation of action potential, with the result that intracellular potassium current is discharged out of the cells and instead extracellular calcium current enters the cells. Immunoblotting of Kir6.1 channel-overexpressing cells (prepared by the aforementioned method) using an anti-Kir6.1 channel antibody (prepared by a conventional method) (n=5, under the same conditions as in Test Example 1, except for using the anti-Kir6.1 channel antibody) confirmed that Kir6.1 channels were overexpressed in N2A cells (FIG. 18-2; upper: immunoblot staining images; lower: quantitative representations of the signal intensity of staining bands).

[6] = system: Wild-type mice (C57BL/6J) treated with corticosterone; test: Anxiety-related behavioral tests in corticosterone-treated wild-type mice; format: in vivo; details: 1 mg/kg orally once a day for 2 weeks
Protocol: (§1) Wild-type mice (C57BL/6J, Japan SLC, two month-old) treated with corticosterone (at a dose of 5 mg/kg once a day for 2 weeks) and Kir6.1-deficient mice treated with corticosterone were used as disease models showing anxiety-like symptoms, to perform five behavioral tests regarding anxiety-related behaviors. The Kir6.1-deficient mice were obtained from Professor Susumu Seino, School of Medicine of Kobe University (Miki T., et al., Nature Medicine 2002, 8, 466-472).
The apparatus used in this test consists of four arms arranged in a cross shape at an elevated position, which are either open or closed. Mice vulnerable to anxiety stay in the closed arms for a longer time, whereas those resistant to anxiety stay in the open arms. In FIG. 19-1, the time spent in the open arms is shown on the vertical axis.
Mice placed in a black box (dark place) feel anxious about light. The time spent until mice began to come out of the box (to a bright place) was measured. […]
In a cage with a mouse, wood chips are spread over the cage floor and 20 marbles are placed thereon in a manner that is visible to the mouse. The mouse is allowed to freely explore for 30 minutes, and the number of marbles buried and hidden by the mouse in wood chips is counted. […]
The test apparatus used in this test was the same as used in the light/dark test method. […] Such an immobility time of mice is measured. […]

[7] = system: Kir6.1-deficient mice treated with corticosterone; test: Anxiety-related behavioral tests in corticosterone-treated Kir6.1-deficient mice; format: in vivo; details: TP-014 treatment 2 weeks
Protocol: as §1
The results of all the tests described above confirmed that chronic treatment with TP-014 (for 2 weeks) ameliorates exacerbated anxiety-like symptoms.

outwardly flowing potassium current [5]: suppressed
Compound: O=C(N[C@@H](c1ccccc1)[C@H]1[C@H]2C[C@@H]3C[C@](Cl)(C2)C[C@@]1(OC(=O)C(F)(F)F)C3)C(F)(F)F [TP-014, (1S,2R,3S,5S,7S)-5-chloro-2-((R)-phenyl(2,2,2-trifluoroacetamido)methyl)adamantan-1-yl 2,2,2-trifluoroacetate]
intracellular calcium levels ([1]; 1-100 nM, 4 minutes after treatment, Kir6.2 channel-overexpressing cells): significantly increased
potency to enhance calcium levels compared with memantine ([1]; TP-014 1-100 nM vs memantine 100 nM): more potent to enhance calcium levels than memantine
fear memory (latency, fear conditioning test) [2]: improvement in fear memory
LTP (percent increase in the excitability of nerve cells) [3]: improved
CaMKII phosphorylation in hippocampus [4]: increased CaMKII phosphorylation
exacerbated anxiety symptoms (elevated plus-maze, light/dark, marble burying, open field, fear conditioning tests) [6]: significant amelioration of exacerbated anxiety symptoms
anxiety-like symptoms [7]: no ameliorating effect was observed
